Data: US6376666B1 (Nauchno-Issledovatelsky Institut Farmakologii Rossiiskoi …, priority 1994, dated 2002)

Columns and labels:
Type in all cases: in vivo
[1] = tested on: Balb/c mice; assay: open-field test, Balb/c mice (passive type of emotional-stress reaction); design: key to Total activity: sum of all locomotor activity counts (crossings + rearings) in 3 min
Procedure, shortened: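 Male mice, 20-22 g, dosed i.p. in water 30 min before a 3-min open-field test after 1 min in darkness; peripheral, central, rearing and total activity plus defecations recorded; Student t-test. Anxiolysis read as Balb/c activation, sedation as C57B1/6 inhibition.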

[2] = tested on: cats; assay: hemodynamics and activity of intact heart in cats under anesthesia; settings: for Cardiac volume, change from basal level / Heart rate, change from basal level / Mean blood flow accelaration (aortic), change from basal level / Mean blood pressure, change from basal level / Stroke volume, change from basal level: cats
Description: The effects of compounds on the hemodynamics and activity of intact heart were studied in cats under anesthesia. The experiments were carried out under conditions of open chest. The phase curve of aortic blood flow was the main index of cardiac activity. The compounds were administered i.v. in physiological solution. The t-Student' test was used to estimate the statistical significance.

[3] = tested on: ventricular disturbances of heart rhythm; assay: arrhythmia in concious dogs according to Harris; settings: for % ectopic contractions, change vs basal level / Heart rate, change vs basal level: 2 mg/kg i.v.
Description: The arrhythmia in concious dogs according to Harris. The experiments were conducted in mongrel dogs of either sex weighing 9-14 kg. Under anesthesia (40 mg/kg of nembutal i.v.) and artificial respiration the two-step occlusion of the left anterior descending coronary artery was performed. The constant ECG disturbances of the heart rhythm were recorded after 24 hours. […] T-Student' test was used for statistical calculation.

[4] = 0.1 mg/kg i.p., M ± mx, 0.1 mg/kg
[5] = 1.0 mg/kg i.p., M ± mx, 1 mg/kg
[6] = 10.0 mg/kg i.p., M ± mx, 10 mg/kg
[7] = 0.5 mg/kg i.v., after injection
[8] = 1.0 mg/kg i.v., after injection

Compound: CCOc1ccc2nc(SCCN(CC)CC)[nH]c2c1 [Compound IX, 2-[2-(Diethylamino)ethylthio]-5-ethoxybenz-imidazole]
- Number of defecations ([1]; 0.1 mg/kg i.p., M ± mx): 0.1 ± 0.1
- Peripheral activity (crossings) [1, 4]: 15.1 ± 9.0
- Total activity [1, 4]: 15.1 ± 9.0
- Peripheral activity (crossings) [1, 5]: 39.8 ± 7.3
- Total activity [1, 5]: 39.8 ± 7.3
- Peripheral activity (crossings) ([1]; 5.0 mg/kg i.p., M ± mx): 44.1 ± 10.2
- Total activity ([1]; 5.0 mg/kg i.p., M ± mx): 44.1 ± 10.2
- Peripheral activity (crossings) [1, 6]: 36.8 ± 5.0
- Total activity [1, 6]: 36.8 ± 5.0
- Peripheral activity (crossings) ([1]; 20.0 mg/kg i.p., M ± mx): 17.8 ± 5.5
- Total activity ([1]; 20.0 mg/kg i.p., M ± mx): 17.8 ± 5.5
- effect on the behavior (locomotor activity) of Balb/c mice in open-field test, in words ([1]; i.p., screening): able to activate the behavior of Balb/c mice
- effect on contractile function of heart, in words ([2]; cats i.v., same doses as bradycardia): slightly enhanced the contractility of myocardium
- duration of bradycardia after administration ([2]; cats i.v., VIII 1,0, IX 0,5 and 1,0, XX 1,0 and 2,0 mg/kg): 30 min
- effect on heart rate, in words ([2]; cats i.v., VIII 1,0, IX 0,5 and 1,0, XX 1,0 and 2,0 mg/kg, XXIII 1.0, verapamil 0.5 mg/kg): expressed bradycardia
- Cardiac volume, change from basal level ([2]; 0.5 mg/kg i.v., after 2 min): −3.5 ± 6.0%
- Heart rate, change from basal level ([2]; 0.5 mg/kg i.v., after 2 min): −11.6 ± 2.8 %
- Mean blood flow accelaration (aortic), change from basal level ([2]; 0.5 mg/kg i.v., after 2 min): +11.0 ± 8.8%
- Mean blood pressure, change from basal level ([2]; 0.5 mg/kg i.v., after 2 min): +4.4 ± 4.7%
- Stroke volume, change from basal level ([2]; 0.5 mg/kg i.v., after 2 min): +9.4 ± 6.5%
- Cardiac volume, change from basal level ([2]; 0.5 mg/kg i.v., after 5 min): −1.7 ± 4.8%
- Mean blood flow accelaration (aortic), change from basal level ([2]; 0.5 mg/kg i.v., after 5 min): +0.6 ± 4.9%
- Mean blood pressure, change from basal level ([2]; 0.5 mg/kg i.v., after 5 min): −5.4 ± 2.3%
- Stroke volume, change from basal level ([2]; 0.5 mg/kg i.v., after 5 min): +5.6 ± 5.6%
- Cardiac volume, change from basal level ([2]; 0.5 mg/kg i.v., after 10 min): −4.2± 2.1%
- Heart rate, change from basal level ([2]; 0.5 mg/kg i.v., after 10 min): −7.3 ± 1.6 %
- Mean blood flow accelaration (aortic), change from basal level ([2]; 0.5 mg/kg i.v., after 10 min): +3.0 ± 4.0%
- Mean blood pressure, change from basal level ([2]; 0.5 mg/kg i.v., after 10 min): −1.2 ± 3.6%
- Stroke volume, change from basal level ([2]; 0.5 mg/kg i.v., after 10 min): +3.6 ± 3.0%
- Cardiac volume, change from basal level ([2]; 0.5 mg/kg i.v., after 20 min): −6.1 ± 3.4%
- Heart rate, change from basal level ([2]; 0.5 mg/kg i.v., after 20 min): −4.5 ± 2.2%
- Mean blood flow accelaration (aortic), change from basal level ([2]; 0.5 mg/kg i.v., after 20 min): +5.6 ± 5.1%
- Mean blood pressure, change from basal level ([2]; 0.5 mg/kg i.v., after 20 min): −4.1 ± 4.8%
- Stroke volume, change from basal level ([2]; 0.5 mg/kg i.v., after 20 min): −0.7 ± 4.0%
- Cardiac volume, change from basal level ([2]; 0.5 mg/kg i.v., after 30 min): −2.8 ± 7.8%
- Heart rate, change from basal level ([2]; 0.5 mg/kg i.v., after 30 min): −5.3 ± 2.3%
- Mean blood flow accelaration (aortic), change from basal level ([2]; 0.5 mg/kg i.v., after 30 min): +1.8 ± 5.8%
- Mean blood pressure, change from basal level ([2]; 0.5 mg/kg i.v., after 30 min): −4.9 ± 6.5%
- Stroke volume, change from basal level ([2]; 0.5 mg/kg i.v., after 30 min): +1.8 ± 9.3%
- Cardiac volume, change from basal level [2, 7]: +6.5 ± 2.8%
- Heart rate, change from basal level [2, 7]: −8.0 ± 3.5%
- Mean blood flow accelaration (aortic), change from basal level [2, 7]: +8.8 ± 5.8%
- Mean blood pressure, change from basal level [2, 7]: −2.1 ± 3.0%
- Stroke volume, change from basal level [2, 7]: +17.0 ± 5.5 %
- Cardiac volume, change from basal level ([2]; 1.0 mg/kg i.v., after 2 min): +2.2 ± 3.5%
- Heart rate, change from basal level ([2]; 1.0 mg/kg i.v., after 2 min): −14.1 ± 2.1 %
- Mean blood flow accelaration (aortic), change from basal level ([2]; 1.0 mg/kg i.v., after 2 min): ± 8.6 +3.8%
- Mean blood pressure, change from basal level ([2]; 1.0 mg/kg i.v., after 2 min): +0.6 ± 2.7%
- Stroke volume, change from basal level ([2]; 1.0 mg/kg i.v., after 2 min): +19.3 ± 4.6 %
- Cardiac volume, change from basal level ([2]; 1.0 mg/kg i.v., after 5 min): +1.7 ± 6.8%
- Heart rate, change from basal level ([2]; 1.0 mg/kg i.v., after 5 min): −10.6 ± 1.5 %
- Mean blood flow accelaration (aortic), change from basal level ([2]; 1.0 mg/kg i.v., after 5 min): +13.6 ± 5.7%
- Mean blood pressure, change from basal level ([2]; 1.0 mg/kg i.v., after 5 min): −3.8 ± 3.4%
- Stroke volume, change from basal level ([2]; 1.0 mg/kg i.v., after 5 min): +13.8 ± 7.8%
- Cardiac volume, change from basal level ([2]; 1.0 mg/kg i.v., after 10 min): −1.3 ± 6.8%
- Heart rate, change from basal level ([2]; 1.0 mg/kg i.v., after 10 min): −7.1 ± 1.0 %
- Mean blood flow accelaration (aortic), change from basal level ([2]; 1.0 mg/kg i.v., after 10 min): +9.6 ± 3.9 %
- Mean blood pressure, change from basal level ([2]; 1.0 mg/kg i.v., after 10 min): −6.8 ± 2.5 %
- Stroke volume, change from basal level ([2]; 1.0 mg/kg i.v., after 10 min): +5.9 ± 6.3%
- Cardiac volume, change from basal level ([2]; 1.0 mg/kg i.v., after 20 min): −0.2 ± 3.8%
- Heart rate, change from basal level ([2]; 1.0 mg/kg i.v., after 20 min): −4.2 ± 1.9%
- Mean blood flow accelaration (aortic), change from basal level ([2]; 1.0 mg/kg i.v., after 20 min): +13.1 ± 5.0 %
- Mean blood pressure, change from basal level ([2]; 1.0 mg/kg i.v., after 20 min): −1.9 ± 2.9%
- Stroke volume, change from basal level ([2]; 1.0 mg/kg i.v., after 20 min): +4.4 ± 4.5%
- Cardiac volume, change from basal level ([2]; 1.0 mg/kg i.v., after 30 min): −2.5 ± 5.1%
- Heart rate, change from basal level ([2]; 1.0 mg/kg i.v., after 30 min): −2.3 ± 3.5%
- Mean blood flow accelaration (aortic), change from basal level ([2]; 1.0 mg/kg i.v., after 30 min): +3.9 ± 2.0%
- Mean blood pressure, change from basal level ([2]; 1.0 mg/kg i.v., after 30 min): −2.7 ± 2.9%
- Stroke volume, change from basal level ([2]; 1.0 mg/kg i.v., after 30 min): +0.7 ± 6.7%
- Cardiac volume, change from basal level [2, 8]: +17.6 ± 8.2%
- Heart rate, change from basal level [2, 8]: −15.4 ± 2.7 %
- Mean blood flow accelaration (aortic), change from basal level [2, 8]: +14.8 ± 8.8%
- Mean blood pressure, change from basal level [2, 8]: −1.6 ± 7.3%
- Stroke volume, change from basal level [2, 8]: +34.21 ± 0.6 %
- antiarrhythmic effect, in words ([3]; concious dogs with ventricular disturbances of heart rhythm, i.v.): pronounced antiarrhythmic effect
- % ectopic contractions, change vs basal level ([3]; concious dogs, after 3 min): −44.8 ± 15.0 %
- Heart rate, change vs basal level ([3]; concious dogs, after 3 min): +3.2 ± 8.4 beats/min
- % ectopic contractions, change vs basal level ([3]; concious dogs, after 5 min): −43.8 ± 13.3 %
- Heart rate, change vs basal level ([3]; concious dogs, after 5 min): −5.2 ± 9.2 beats/min
- % ectopic contractions, change vs basal level ([3]; concious dogs, after 10 min): −59.4 ± 7.8 %
- Heart rate, change vs basal level ([3]; concious dogs, after 10 min): −14.6 ± 12.0 beats/min
- % ectopic contractions, change vs basal level ([3]; concious dogs, after 20 min): −41.4 ± 8.1 %
- Heart rate, change vs basal level ([3]; concious dogs, after 20 min): −16.4 ± 6.6 & beats/min
- % ectopic contractions, change vs basal level ([3]; concious dogs, after 30 min): −24.8 ± 5.8 %
- Heart rate, change vs basal level ([3]; concious dogs, after 30 min): −5.6 ± 2.1 & beats/min
- % ectopic contractions, change vs basal level ([3]; concious dogs, after 60 min): −17.2 ± 9.1%
- Heart rate, change vs basal level ([3]; concious dogs, after 60 min): −5.2 ± 4.1 & beats/min
- duration of antiarrhythmic effect ([3]; concious dogs, 2,0 mg/kg i.v.): 50 min
- effect on heart rate, in words ([3]; concious dogs, i.v.): gradual bradycardia
- tolerability / side effects, in words ([3]; concious dogs, i.v.): no side effects
